Experimental data from US12338262B2 (Forward Therapeutics, Inc., priority 2022, dated 2025).

molecular target: TNF-α (Homo sapiens, UniProt P01375); test: TNF-α Induced HEK Blue Cellular Assay; type: cell-based; conditions: HEK Blue TNFα reporter cells, TNF-α 100 pg/ml, 24 hrs at 37° C., secreted alkaline phosphatase (QUANTI-Blue, 620 nm)
Outline: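 HEK Blue TNFα reporter cells (10,000/well, DMEM + 10% FBS) treated with compound ([…] to 0.5 nM final) and stimulated with 100 pg/ml TNF-α for 24 h at 37 °C. Secreted alkaline phosphatase read with QUANTI-Blue at 620 nm; IC50 by 4-parameter logistic fit after background correction to stimulated/unstimulated DMSO controls.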

Chain of TNF-α (P01375 77-233 limits assumed): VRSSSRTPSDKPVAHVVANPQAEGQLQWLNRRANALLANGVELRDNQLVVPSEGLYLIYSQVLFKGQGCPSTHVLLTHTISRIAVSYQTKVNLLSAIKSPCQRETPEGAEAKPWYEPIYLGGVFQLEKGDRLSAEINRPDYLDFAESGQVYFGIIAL

`Cc1nc2cc(F)c(-c3cnc(P(C)(C)=O)nc3)cc2c(N[C@H](C)c2cccc(F)c2F)c1Cl` [Example 65, 3-chloro-N-[(1R)-1-(2,3-difluorophenyl)ethyl]-6-[2-(dimethylphosphoryl)pyrimidin-5-yl]-7-fluoro-2-methylquinolin-4-amine] and `Cc1nc2cc(F)c(-c3ccc(P(C)(C)=O)nc3)cc2c(N[C@H](C)c2cccc(F)c2F)c1Cl` [Example 67, 3-chloro-N-[(1R)-1-(2,3-difluorophenyl)ethyl]-6-[6-(dimethylphosphoryl)pyridin-3-yl]-7-fluoro-2-methylquinolin-4-amine] cannot be ordered by IC50: at most 1000 nM for the first, at most 100 nM for the second.

Compared with `Cc1cn(-c2ccc(F)c([C@@H](C)Nc3c(Cl)c(C)nc4cc(F)c(-c5ccc(P(C)(C)=O)nc5)nc34)c2)cn1` [Example 66, 3-chloro-6-[6-(dimethylphosphoryl)pyridin-3-yl]-7-fluoro-N-[(1R)-1-[2-fluoro-5-(4-methylimidazol-1-yl)phenyl]ethyl]-2-methyl-1,5-naphthyridin-4-amine], `Cc1nc2cc(F)c(-c3ccc(P(C)(C)=O)nc3)nc2c(N[C@H](C)c2ccc(F)cc2F)c1Cl` [Example 88, 3-chloro-N-[(1R)-1-(2,4-difluorophenyl)ethyl]-6-[6-(dimethylphosphoryl)pyridin-3-yl]-7-fluoro-2-methyl-1,5-naphthyridin-4-amine] is higher in IC50: at most 1000 nM for the first, 10000 to 30000 nM for the second.

`CC[C@H](Nc1c(Cl)c(C)nc2cc(F)c(-c3ccc(P(C)(C)=O)nc3)nc12)c1ncccc1F` [Example 68, (S)-(5-(7-chloro-3-fluoro-8-((1-(3-fluoropyridin-2-yl)propyl)amino)-6-methyl-1,5-naphthyridin-2-yl)pyridin-2-yl)dimethylphosphine oxide] and `CC[C@@H](Nc1c(Cl)c(C)nc2cc(F)c(-c3ccc(P(C)(C)=O)nc3)nc12)c1ncccc1F` [Example 69, (R)-(5-(7-chloro-3-fluoro-8-((1-(3-fluoropyridin-2-yl)propyl)amino)-6-methyl-1,5-naphthyridin-2-yl)pyridin-2-yl)dimethylphosphine oxide] cannot be ordered by IC50: at most 100 nM for the first, at most 1000 nM for the second.

`Cc1nc2cc(F)c(-c3ccc(P(C)(C)=O)nc3)nc2c(N[C@@H](c2ccccc2F)C(F)(F)F)c1Cl` [Example 70, 3-chloro-6-[6-(dimethylphosphoryl)pyridin-3-yl]-7-fluoro-2-methyl-N-[(1S)-2,2,2-trifluoro-1-(2-fluorophenyl)ethyl]-1,5-naphthyridin-4-amine] and `Cc1nc2cc(F)c(-c3cnc(P(C)(C)=O)nc3)nc2c(N[C@@H](c2ccccc2F)C(F)(F)F)c1Cl` [Example 71, 3-chloro-6-[2-(dimethylphosphoryl)pyrimidin-5-yl]-7-fluoro-2-methyl-N-[(1S)-2,2,2-trifluoro-1-(2-fluorophenyl)ethyl]-1,5-naphthyridin-4-amine] cannot be ordered by IC50: at most 100 nM for the first, at most 1000 nM for the second.

`Cc1nc2cc(F)c(-c3ccc(P(C)(C)=O)nc3)c(F)c2c(N[C@H](C)c2ccccc2F)c1Cl` [Example 72, 3-chloro-6-[6-(dimethylphosphoryl)pyridin-3-yl]-5,7-difluoro-N-[(1R)-1-(2-fluorophenyl)ethyl]-2-methylquinolin-4-amine] and `CC[C@H](Nc1c(Cl)c(C)nc2cc(F)c(-c3ccc(P(C)(C)=O)nc3)c(F)c12)c1ncccc1F` [Example 73, (S)-(5-(3-chloro-5,7-difluoro-4-((1-(3-fluoropyridin-2-yl)propyl)amino)-2-methylquinolin-6-yl)pyridin-2-yl)dimethylphosphine oxide] cannot be ordered by IC50: at most 1000 nM for the first, at most 1000 nM for the second.

`CC[C@@H](Nc1c(Cl)c(C)nc2cc(F)c(-c3ccc(P(C)(C)=O)nc3)c(F)c12)c1ncccc1F` [Example 74, (R)-(5-(3-chloro-5,7-difluoro-4-((1-(3-fluoropyridin-2-yl)propyl)amino)-2-methylquinolin-6-yl)pyridin-2-yl)dimethylphosphine oxide] and `CC[C@@H](Nc1c(F)c(C)nc2cc(F)c(-c3ccc(P(C)(C)=O)nc3)nc12)c1ccccc1F` [Example 77, 6-[6-(dimethylphosphoryl)pyridin-3-yl]-3,7-difluoro-N-[(1R)-1-(2-fluorophenyl)propyl]-2-methyl-1,5-naphthyridin-4-amine] cannot be ordered by IC50: at most 1000 nM for the first, at most 1000 nM for the second.

`Cc1nc2cc(F)c(-c3ccc(P(C)(C)=O)nc3)nc2c(N[C@H](C)c2cccnc2)c1Cl` [Example 75, 3-chloro-6-[6-(dimethylphosphoryl)pyridin-3-yl]-7-fluoro-2-methyl-N-[(1R)-1-(pyridin-3-yl)ethyl]-1,5-naphthyridin-4-amine] and `CCC(Nc1c(Cl)c(C)nc2cc(F)c(-c3ccc(P(C)(C)=O)nc3)nc12)c1cccnc1` (centres unmarked) [Example 82, 3-chloro-6-[6-(dimethylphosphoryl)pyridin-3-yl]-7-fluoro-2-methyl-N-[1-(pyridin-3-yl)propyl]-1,5-naphthyridin-4-amine] cannot be ordered by IC50: at most 100 nM for the first, at most 100 nM for the second.

`CC[C@H](Nc1c(Cl)c(C)nc2cc(F)c(-c3ccc(P(C)(C)=O)nc3)nc12)c1ccccn1` [Example 76, 3-chloro-6-[6-(dimethylphosphoryl)pyridin-3-yl]-7-fluoro-2-methyl-N-[(1S)-1-(pyridin-2-yl)propyl]-1,5-naphthyridin-4-amine] and `CC[C@@H](Nc1c(Cl)c(C)nc2cc(F)c(-c3ccc(P(C)(C)=O)nc3)nc12)c1ccccn1` [Example 84, 3-chloro-6-[6-(dimethylphosphoryl)pyridin-3-yl]-7-fluoro-2-methyl-N-[(1R)-1-(pyridin-2-yl)propyl]-1,5-naphthyridin-4-amine] cannot be ordered by IC50: at most 100 nM for the first, at most 1000 nM for the second.

First: Cc1nc2cc(F)c(-c3ccc(P(C)(C)=O)nc3)nc2c(N[C@H](C)c2cccc(Cl)c2F)c1Cl [Example 78, 3-chloro-N-[(1R)-1-(3-chloro-2-fluorophenyl)ethyl]-6-[6-(dimethylphosphoryl)pyridin-3-yl]-7-fluoro-2-methyl-1,5-naphthyridin-4-amine]
Second: Cc1nc2cc(F)c(-c3ccc(P(C)(C)=O)nc3)nc2c(N[C@H](C)c2ccccc2Cl)c1Cl [Example 87, 3-chloro-N-[(1R)-1-(2-chlorophenyl)ethyl]-6-[6-(dimethylphosphoryl)pyridin-3-yl]-7-fluoro-2-methyl-1,5-naphthyridin-4-amine]
The IC50 of the first is lower: at most 100 nM for the first, 1000 to 10000 nM for the second. The first is the more potent here.

`CC[C@@H](Nc1c(Cl)c(C)nc2cc(F)c(-c3ccc(P(C)(C)=O)nc3)nc12)c1ccccc1` [Example 79, 3-chloro-6-[6-(dimethylphosphoryl)pyridin-3-yl]-7-fluoro-2-methyl-N-[(1R)-1-phenylpropyl]-1,5-naphthyridin-4-amine] and `Cc1nc2cc(F)c(-c3ccc(P(C)(C)=O)nc3)nc2c(N[C@H](C)c2ccccc2)c1Cl` [Example 90, 3-chloro-6-[6-(dimethylphosphoryl)pyridin-3-yl]-7-fluoro-2-methyl-N-[(1R)-1-phenylethyl]-1,5-naphthyridin-4-amine] cannot be ordered by IC50: at most 100 nM for the first, at most 100 nM for the second.

`Cc1nc2cc(F)c(-c3ccc(P(C)(C)=O)nc3)nc2c(N[C@H](C)c2ccc(F)c(F)c2)c1Cl` [Example 80, 3-chloro-N-[(1R)-1-(3,4-difluorophenyl)ethyl]-6-[6-(dimethylphosphoryl)pyridin-3-yl]-7-fluoro-2-methyl-1,5-naphthyridin-4-amine] and `Cc1nc2cc(F)c(-c3ccc(P(C)(C)=O)nc3)nc2c(N[C@H](C)c2cc(F)cc(F)c2)c1Cl` [Example 85, 3-chloro-N-[(1R)-1-(3,5-difluorophenyl)ethyl]-6-[6-(dimethylphosphoryl)pyridin-3-yl]-7-fluoro-2-methyl-1,5-naphthyridin-4-amine] cannot be ordered by IC50: at most 1000 nM for the first, at most 1000 nM for the second.

First: COc1cc([C@@H](C)Nc2c(Cl)c(C)nc3cc(F)c(-c4ccc(P(C)(C)=O)nc4)nc23)ccn1 [Example 81, 3-chloro-6-[6-(dimethylphosphoryl)pyridin-3-yl]-7-fluoro-N-[(1R)-1-(2-methoxypyridin-4-yl)ethyl]-2-methyl-1,5-naphthyridin-4-amine]
Second: Cc1nc2cc(F)c(-c3ccc(P(C)(C)=O)nc3)nc2c(N[C@H](C)c2cccc(F)c2)c1Cl [Example 86, 3-chloro-6-[6-(dimethylphosphoryl)pyridin-3-yl]-7-fluoro-N-[(1R)-1-(3-fluorophenyl)ethyl]-2-methyl-1,5-naphthyridin-4-amine]
The IC50 of the first is higher: 10000 to 30000 nM for the first, at most 100 nM for the second. The second is the more potent here.

`Cc1nc2cc(F)c(-c3ccc(P(C)(C)=O)nc3)nc2c(N[C@H](C)c2ccccn2)c1Cl` [Example 83, 3-chloro-6-[6-(dimethylphosphoryl)pyridin-3-yl]-7-fluoro-2-methyl-N-[(1R)-1-(pyridin-2-yl)ethyl]-1,5-naphthyridin-4-amine] and `Cc1nc2cc(F)c(-c3ccc(P(C)(C)=O)nc3)nc2c(N[C@H](C)c2cccc(Cl)c2)c1Cl` [Example 91, 3-chloro-N-[(1R)-1-(3-chlorophenyl)ethyl]-6-[6-(dimethylphosphoryl)pyridin-3-yl]-7-fluoro-2-methyl-1,5-naphthyridin-4-amine] cannot be ordered by IC50: at most 1000 nM for the first, at most 100 nM for the second.

First: Cc1nc2cc(F)c(-c3ccc(P(C)(C)=O)nc3)nc2c(N[C@H](C)c2c(F)ccc(F)c2F)c1Cl [Example 89, 3-chloro-6-[6-(dimethylphosphoryl)pyridin-3-yl]-7-fluoro-2-methyl-N-[(1R)-1-(2,3,6-trifluorophenyl)ethyl]-1,5-naphthyridin-4-amine]
Second: Cc1nc2cc(F)c(-c3ccc(P(C)(C)=O)nc3)nc2c(N[C@H](C)c2cccc(C(F)(F)F)c2)c1Cl [Example 93, 3-chloro-6-[6-(dimethylphosphoryl)pyridin-3-yl]-7-fluoro-2-methyl-N-[(1R)-1-[3-(trifluoromethyl)phenyl]ethyl]-1,5-naphthyridin-4-amine]
The IC50 of the first is higher: 10000 to 30000 nM for the first, at most 100 nM for the second. The second is the more potent here.

Work on `Cc1nc2cc(F)c(-c3ccc(P(C)(C)=O)nc3)nc2c(N[C@H](C)c2cccc(C(F)F)c2)c1Cl` [Example 92, 3-chloro-N-[(1R)-1-[3-(difluoromethyl)phenyl]ethyl]-6-[6-(dimethylphosphoryl)pyridin-3-yl]-7-fluoro-2-methyl-1,5-naphthyridin-4-amine] yielded an IC50 of at most 100 nM.
